Experimental data published in patent publication US10206906B2, “Synergistic combination of a phenolic-rich maple syrup extract and an antibiotic” (priority 2015, dated 2019).

What was measured:
[1] = tested on: cell membrane of P. aeruginosa PAO1; assay: BacLight membrane integrity assay; assay type: cell-based, Pseudomonas aeruginosa; conditions: PRMSE, catechol at 4 × MIC for 10 min; CTAB 10 μM; untreated = 100
Experimental: (§1) The BacLight kit (L-13152, Invitrogen™, Life Technologies Inc., Canada) is used to assess cell membrane damage. Overnight bacterial cultures are diluted 1:40 in fresh MHBII broth to a final volume of 5 mL, grown to an OD600 of 0.5-0.6, washed with filter-sterilized 10 mM phosphate buffered saline (PBS, pH 7.0) and resuspended in 1/10 of the original volume. […] Cultures are incubated at room temperature (21±2° C.) on a tube rocker for 10 min. At the end of the incubation period, an aliquot is taken for CFU counts and the remaining suspension is washed with 10 mM PBS and resuspended to an OD600) of 0.3. An aliquot (100 μL) of each bacterial suspension is removed and added to a 96-well, black, clear-bottom plate (Corning™, Fisher Scientific, ON, Canada) along with an equal volume of the BacLight™ reagent (2× stock solution, L13152, Invitrogen™, Life Technologies Inc., Canada) and the plates are incubated for 10 min at room temperature in the dark. At the end of the incubation period, fluorescence intensity is recorded for both kit components, SYTO-9 (ex/em 485/530 nm) and propidium iodide (ex/em 485/645 nm), using the microplate reader. Fluorescence readings from samples are normalized to the values obtained from untreated control to determine the ratio of membrane compromised cells to cells with intact membrane. Cetyltrimethylammonium bromide (CTAB, Sigma-Aldrich Canada), a cationic detergent that is known to cause membrane damage, is used at concentration of 10 μM as a positive control for membrane disruption.

[2] = tested on: P. aeruginosa PA14 biofilm; assay: Biofilm formation, microtitre plate crystal violet assay; assay type: cell-based, Pseudomonas aeruginosa; conditions: p<0.05
Experimental: (§2) Biofilm formation is quantified using the standard microtitre plate model. […] Aliquots (100 μL) of these cultures are transferred into the wells of polystyrene, flat bottom, non-treated 96 well plates (Falcon™, Corning™), in triplicate. For all assays, biofilms are allowed to develop for 16 h at 37° C. under static conditions, after which OD600 values are recorded, the spent broth is decanted from the wells, and the wells are gently rinsed three times with DI water. The washed biofilm is stained with crystal violet (CV). For CV stain assay, 100 μL of 0.1% (w/v) CV is loaded in each well and the plates are incubated for 15 min under static conditions at room temperature. The wells are subsequently rinsed with DI water to remove excess dye and the CV adsorbed to the biomass in each well is solubilized in 100 μL of absolute ethanol for 10 min. The solubilized CV is then quantified (as OD570) using a microplate reader. Control experiments are performed with cell-free broth to adjust for the background signal.

[3] = tested on: P. aeruginosa PAO1 biofilm; assay: as above; assay type: cell-based, Pseudomonas aeruginosa; conditions: p<0.05
Experimental: as §2

[4] = tested on: cell membrane of E. coli CFT073; assay: BacLight membrane integrity assay; assay type: cell-based, Escherichia coli; conditions: PRMSE, catechol at 4 × MIC for 10 min; CTAB 10 μM; untreated = 100
Experimental: as §1, with “Cetyltrimethylammonium bromide (CTAB, Sigma-Aldrich Canada), a cationic detergent that is known to cause membrane damage, is used at concentration of 10 μM as a positive control for membrane disruption.” left out

[5] = substance alone at sub-lethal concentrations, 16 h
[6] = with ciprofloxacin, both at sub-lethal concentrations

Oc1ccccc1O [catechol, 1,2-dihydroxybenzene]
% cells with uncompromised membrane [1]: 80.4%
inhibition of monoculture biofilm formation (OD570/OD600) [2, 5]: significant inhibitory effects
inhibitory effect on biofilm formation, with ciprofloxacin [2, 6]: significant inhibitory effects
inhibition of monoculture biofilm formation (OD570/OD600) [3, 5]: significant inhibitory effects
inhibitory effect on biofilm formation, with ciprofloxacin [3, 6]: significant inhibitory effects
% cells with uncompromised membrane (BacLight assay) [4]: 68%
